From patent US7862824B2, “Enhancement of GLP-2 activity of suppressing appetite” (1149336 Ontario, Inc., priority 2001, dated 2011)
Where no end group is shown, it is not given here.

Columns and labels:
[1] = tested on: rats; settings: cited from earlier work
[2] = tested on: human subjects with short bowel syndrome; settings: 400 ug twice daily; cited from earlier work
[3] = target: T1, rat GLP-2 receptor (Rattus norvegicus, UniProt Q9Z0W0); experiment: cAMP accumulation in BHK cells stably expressing the rat GLP-2 receptor (RIA); type: cell-based; settings: BHK-GLP-2R cells
T1 construct: expressed in transfected cells; host or cells: BHK (baby hamster kidney fibroblast) cells, stably transfected
T1 sequence (Q9Z0W0 1-550): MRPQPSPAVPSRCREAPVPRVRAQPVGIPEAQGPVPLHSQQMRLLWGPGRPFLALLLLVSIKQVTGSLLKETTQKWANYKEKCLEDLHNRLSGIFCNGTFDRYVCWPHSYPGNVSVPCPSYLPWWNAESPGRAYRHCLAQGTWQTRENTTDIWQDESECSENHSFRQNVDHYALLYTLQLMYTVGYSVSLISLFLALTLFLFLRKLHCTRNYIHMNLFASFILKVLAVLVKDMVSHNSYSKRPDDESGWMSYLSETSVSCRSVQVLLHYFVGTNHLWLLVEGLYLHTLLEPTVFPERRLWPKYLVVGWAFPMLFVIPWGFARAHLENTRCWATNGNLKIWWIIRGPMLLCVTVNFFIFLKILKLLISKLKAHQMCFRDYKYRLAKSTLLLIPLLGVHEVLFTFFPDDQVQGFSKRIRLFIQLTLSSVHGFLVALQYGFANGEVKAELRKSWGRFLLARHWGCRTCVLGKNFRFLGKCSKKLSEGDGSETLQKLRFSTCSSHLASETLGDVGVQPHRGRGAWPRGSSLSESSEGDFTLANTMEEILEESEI
Procedure: Peptides were diluted in DMEM containing 100 μM IBMX. The cAMP concentration in aliquots of ethanol extract was determined using a RIA and normalized to show cAMP/well. […] The concentration of peptide is plotted on a logarithmic scale. Error bars represent mean±SD.
GLP-2 receptors were propagated as previously described (42) and levels of intracellular cAMP were assayed following exposure to individual peptides in DMEM containing 100 μM IBMX (Sigma Chemical Co., St. Louis, Mo.) as reported (41,42). […] The treated cells were then incubated at 37° C. for 10 minutes. Absolute ethanol (−20° C.) was added to terminate the reaction and the plates were stored at −80° C. until the cell extracts were collected (2-4 hours later). Forskolin was used as a positive control. Cyclic adenosine monophosphate (cAMP) radioimmunoassays (Biomedical Technologies, Stoughton, Mass.) were performed on dried aliquots of extract and data was normalized to cAMP/well. All treatments were performed in triplicate or quadruplicate and the data is expressed as mean±SD. EC50 values were calculated using GraphPad Prism 3.00 (GraphPad Software Inc., San Diego, Calif.).

[4] = target: T2, rat GLP-1 receptor (Rattus norvegicus, UniProt P32301); experiment: cAMP accumulation in BHK cells stably expressing the rat GLP-1 receptor (RIA); type: cell-based; settings: BHK-GLP-1R cells
T2 construct: expressed in transfected cells; host or cells: BHK (baby hamster kidney fibroblast) cells, stably transfected
T2 sequence (P32301 22-463): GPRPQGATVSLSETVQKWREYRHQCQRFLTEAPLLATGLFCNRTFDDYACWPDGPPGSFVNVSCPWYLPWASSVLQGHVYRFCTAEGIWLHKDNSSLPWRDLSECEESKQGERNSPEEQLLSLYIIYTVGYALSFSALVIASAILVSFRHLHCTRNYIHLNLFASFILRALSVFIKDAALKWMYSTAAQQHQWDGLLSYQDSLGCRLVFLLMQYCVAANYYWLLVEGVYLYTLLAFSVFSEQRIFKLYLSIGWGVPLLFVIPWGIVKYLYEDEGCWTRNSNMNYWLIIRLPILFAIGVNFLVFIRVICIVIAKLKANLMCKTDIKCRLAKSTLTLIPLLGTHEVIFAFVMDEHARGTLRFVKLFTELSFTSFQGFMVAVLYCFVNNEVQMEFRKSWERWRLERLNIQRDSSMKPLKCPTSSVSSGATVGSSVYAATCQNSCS

[5] = tested on: adult male CD1 mice; experiment: Intracerebroventricular peptide injection and food intake in wildtype mice; type: in vivo, mouse; settings: for dark phase food intake: icv prior to dark phase; for dark phase food intake / food intake in fasted mice: h[Gly2]-GLP-2 50 ug, exendin-4 1 ug; for food intake in fasted mice: after 15 hour fast
Procedure: FIG. 1: h[Gly^2]-GLP-2 (also designated “440” in the Figure) inhibits dark phase food intake in mice. […] Following recovery, food intake was measured at 1, 2, and 4 hours (Hr) after injection. Values are expressed as mean±S.E.M., n=6 per group for (a) and n=8-20 for (b). (c) Groups of wildtype mice were administered either vehicle (PBS), h[Gly^2]-GLP-2 (50 ug dissolved in PBS), h[Gly^2]-GLP-2 and exendin (9-39) (50 ug of each peptide dissolved in PBS) or exendin (9-39) alone (50 ug dissolved in PBS) via icv injection. (f) Groups of wildtype mice were administered (icv) either vehicle (PBS), h[Gly^2]-GLP-2 alone (50 ug dissolved in PBS), or h[Gly^2]-GLP-2 (50 ug dissolved in PBS) and exendin (9-39) (0.05, 0.5 or 5 ug dissolved in PBS). (e) Groups of wildtype and GLP-1R−/− mice were injected icv with either vehicle (PBS) or h[Gly^2]-GLP-2 (50 ug dissolved in PBS) just prior to the start of dark phase and food intake was measured at 1, 2, and 4 hours. Data are expressed as mean±S.E.M., n=5-8 for all groups. Treatments at each time point for experiments shown in FIG. 1 were compared using a one way analysis of variance followed by an LSD multiple range test using SPSS for Windows version 5.0.1 (SPSS Inc., Chicago Ill.). *p<0.05 compared to controls (PBS), or to comparisons between groups indicated by connected lines.
For icv injections adult male CD1 mice randomized into multiple experimental groups were deeply anesthetized by inhalation of methoxyflurane (Metophane; Janssen, Toronto Ontario) (43). Following icv injections of equal volumes of saline or peptide dissolved in saline, animals were allowed to recover for ^˜15-20 minutes until the observation of a righting-response. Mice were then weighed, given a premeasured quantity of rodent chow and food intake was quantified at 1, 2, 4 and 22 hours. The accuracy of icv injection was verified at autopsy analysis by detection of bromophenol dye in the lateral ventricles of selected animals. Animals were injected with peptide at either 19:00 hours (for dark phase feeding studies) or at 10:00 hours following an overnight fast of 15 hours (for fasting studies).

[6] = tested on: GLP-1R-/- mice; experiment: Intracerebroventricular peptide injection and food intake in GLP-1R-/- mice; type: in vivo, mouse; settings: icv 50 ug; dark phase; 0-1 hour and 2-4 hour time points
Procedure: FIG. 1: h[Gly^2]-GLP-2 (also designated “440” in the Figure) inhibits dark phase food intake in mice. […] Following recovery, food intake was measured at 1, 2, and 4 hours (Hr) after injection. Values are expressed as mean±S.E.M., n=6 per group for (a) and n=8-20 for (b). (c) Groups of wildtype mice were administered either vehicle (PBS), h[Gly^2]-GLP-2 (50 ug dissolved in PBS), h[Gly^2]-GLP-2 and exendin (9-39) (50 ug of each peptide dissolved in PBS) or exendin (9-39) alone (50 ug dissolved in PBS) via icv injection. (f) Groups of wildtype mice were administered (icv) either vehicle (PBS), h[Gly^2]-GLP-2 alone (50 ug dissolved in PBS), or h[Gly^2]-GLP-2 (50 ug dissolved in PBS) and exendin (9-39) (0.05, 0.5 or 5 ug dissolved in PBS). (e) Groups of wildtype and GLP-1R−/− mice were injected icv with either vehicle (PBS) or h[Gly^2]-GLP-2 (50 ug dissolved in PBS) just prior to the start of dark phase and food intake was measured at 1, 2, and 4 hours. Data are expressed as mean±S.E.M., n=5-8 for all groups. […]
For icv injections adult male CD1 mice randomized into multiple experimental groups were deeply anesthetized by inhalation of methoxyflurane (Metophane; Janssen, Toronto Ontario) (43). […] Mice were then weighed, given a premeasured quantity of rodent chow and food intake was quantified at 1, 2, 4 and 22 hours. […]

glucagon-like peptide 2 (HADGSFSDEMNTILDNLAARDFINWLIQTKITD; also: acetate salt; UniProt P01275 146-178, looked up) [GLP-2, wild type glucagon-like peptide 2; literature results in rats (icv) and in humans as acetate salt]
food intake in rats after icv infusion ([1]; icv): inhibited food intake
therapeutic response in short bowel patients [2]: significant therapeutic response

exendin (9-39) [reference compound]
effect on h[Gly2]-GLP-2-stimulated cAMP formation (antagonism) ([3]; exendin (9-39) 50-1000 nM): no effect
effect on GLP-1-stimulated cAMP accumulation (antagonism) [4]: decreased GLP-1-stimulated cAMP accumulation in a concentration-dependent manner
amount sufficient for significant potentiation of anorectic effect of h[Gly2]-GLP-2 ([5]; icv with h[Gly2]-GLP-2 50 ug, dark phase, 1-2 hour time point): 0.05 µg
effect on the anorectic effects of GLP-2 in rats [1]: completely inhibited

CC[C@H](C)[C@H](NC(=O)[C@H](Cc1ccccc1)NC(=O)[C@H](CC(=O)O)NC(=O)[C@H](CCCNC(=N)N)NC(=O)[C@H](C)NC(=O)[C@H](C)NC(=O)[C@H](CC(C)C)NC(=O)[C@H](CC(N)=O)NC(=O)[C@H](CC(=O)O)NC(=O)[C@H](CC(C)C)NC(=O)[C@@H](NC(=O)[C@@H](NC(=O)[C@H](CC(N)=O)NC(=O)[C@H](CCSC)NC(=O)[C@H](CCC(=O)O)NC(=O)[C@H](CC(=O)O)NC(=O)[C@H](CO)NC(=O)[C@H](Cc1ccccc1)NC(=O)[C@H](CO)NC(=O)CNC(=O)[C@H](CC(=O)O)NC(=O)CNC(=O)[C@@H](N)Cc1c[nH]cn1)[C@@H](C)O)[C@@H](C)CC)C(=O)N[C@@H](CC(N)=O)C(=O)N[C@@H](Cc1c[nH]c2ccccc12)C(=O)N[C@@H](CC(C)C)C(=O)N[C@H](C(=O)N[C@@H](CCC(N)=O)C(=O)N[C@H](C(=O)N[C@@H](CCCCN)C(=O)N[C@H](C(=O)N[C@H](C(=O)N[C@@H](CC(=O)O)C(=O)O)[C@@H](C)O)[C@@H](C)CC)[C@@H](C)O)[C@@H](C)CC [h[Gly^2]-GLP-2]
cAMP accumulation (agonist effect) [3]: increased cAMP accumulation in a dose-dependent manner
EC50 ([3]; 0 nM Exendin (9-39) pre-treatment): 0.044 nM
EC50 ([3]; in the presence of 50 nM Exendin (9-39)): 0.059 nM
EC50 ([3]; in the presence of 500 nM Exendin (9-39)): 0.076 nM
EC50 ([3]; in the presence of 1000 nM Exendin (9-39)): 0.081 nM
cAMP accumulation (agonist effect) [4]: no effect on cAMP accumulation
dark phase food intake [5]: significantly inhibited
food intake in fasted mice ([5]; icv): not
food intake in the first hour after injection, absence of exendin (9-39) ([5]; icv, dark phase, 50 ug): did not inhibit food intake
duration of inhibitory effect on food intake ([5]; icv, data not shown): transient and not detectable after more than 4 hours
inhibition of food intake with co-administered exendin (9-39) ([5]; icv, wildtype mice, 50 ug of each peptide, multiple time intervals including first hour): significantly more pronounced
inhibition of food intake in GLP-1R-/- mice compared with +/+ control mice [6]: significantly greater sensitivity

exendin-4 [reference compound]
cAMP accumulation (agonist effect) [3]: no cAMP accumulation was detected
dark phase food intake [5]: significantly inhibited
food intake in fasted mice ([5]; icv): inhibited food intake
inhibitory effect on dark phase food intake compared with h[Gly2]-GLP-2 ([5]; icv, dark phase): significantly more potent

Rat GLP-1 (7-36)NH2 [reference compound]
cAMP accumulation (agonist effect) [3]: no cAMP accumulation was detected
